{
  "source": "PubChem BioAssay AID588808",
  "about": "(Broad Institute, 2011)",
  "note": "The source made the active and inactive calls.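 Rule for the calls: active = Aurora B inhibition with potency within ten times the top dose, in every repeat test; inconclusive = repeat tests disagree in their calls; inactive = every repeat test inactive.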",
  "data": [
    {"biological_target": "Aurora kinase B (Homo sapiens) (UniProt Q96GD4)", "sequence (Q96GD4 whole entry, looked up)": "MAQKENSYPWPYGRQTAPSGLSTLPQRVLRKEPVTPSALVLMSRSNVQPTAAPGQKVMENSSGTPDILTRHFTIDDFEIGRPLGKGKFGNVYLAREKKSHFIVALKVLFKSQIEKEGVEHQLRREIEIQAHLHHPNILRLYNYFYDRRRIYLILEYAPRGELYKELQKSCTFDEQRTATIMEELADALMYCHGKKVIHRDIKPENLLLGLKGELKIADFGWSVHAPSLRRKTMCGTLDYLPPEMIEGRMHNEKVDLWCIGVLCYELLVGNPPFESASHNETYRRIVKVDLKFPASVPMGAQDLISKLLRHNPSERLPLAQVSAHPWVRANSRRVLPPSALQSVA", "test": "Aurora B kinase inhibition counter-screen, dose response, counter-screen for STK33 inhibitor project, biochemical, scintillation, dry powder, set 3 (AID 588808)", "settings": "Recombinant Aurora B, 33P-ATP filter-binding scintillation", "units": {"AC50": "µM"}, "values": [
      {"smiles": "CC(C)c1ccc(NC(=O)c2cccs2)c(-c2nc3ccccc3[nH]c2=O)c1", "AC50": 7.79}
    ]},
    {"biological_target": "Aurora kinase B (Homo sapiens) (UniProt Q96GD4)", "test": "Aurora B kinase inhibition counter-screen, dose response, counter-screen for STK33 inhibitor project, biochemical, scintillation, dry powder, set 3 (AID 588808)", "settings": "Recombinant Aurora B, 33P-ATP filter-binding scintillation; at 10 µM (top of the series)", "values": [
      {"smiles": "O=C(Nc1ccc(Cl)cc1-c1nc2ccccc2[nH]c1=O)c1cccs1", "activity change, negative = inhibition": "inactive"},
      {"smiles": "O=C(Nc1ccccc1-c1nc2ccccc2[nH]c1=O)c1cccs1", "activity change, negative = inhibition": "inactive"},
      {"smiles": "O=C(Nc1ccc(OC(F)(F)F)cc1-c1nc2ccccc2[nH]c1=O)c1cccs1", "activity change, negative = inhibition": "inactive"},
      {"smiles": "O=C(Nc1ccccc1-c1nc2ccccc2[nH]c1=O)c1ccccn1", "activity change, negative = inhibition": "inactive"},
      {"smiles": "O=C(Nc1cc(Cl)ccc1-c1nc2ccccc2[nH]c1=O)c1cccs1", "activity change, negative = inhibition": "inactive"},
      {"smiles": "O=C(Nc1ccccc1-c1nc2ccccc2[nH]c1=O)c1cccc(Cl)c1", "activity change, negative = inhibition": "inactive"},
      {"smiles": "O=C(Nc1ccccc1-c1nc2ccccc2[nH]c1=O)c1cccnc1", "activity change, negative = inhibition": "inactive"},
      {"smiles": "O=C(Nc1cc(F)ccc1-c1nc2ccccc2[nH]c1=O)c1cccs1", "activity change, negative = inhibition": "inactive"},
      {"smiles": "COc1ccc(C(=O)Nc2ccccc2-c2nc3ccccc3[nH]c2=O)cc1", "activity change, negative = inhibition": "inactive"},
      {"smiles": "COc1ccc(NC(=O)c2cccs2)c(-c2nc3ccccc3[nH]c2=O)c1", "activity change, negative = inhibition": "inactive"},
      {"smiles": "O=C(Nc1ccccc1-c1nc2ccccc2[nH]c1=O)c1ccc(F)cc1", "activity change, negative = inhibition": "inactive"},
      {"smiles": "O=C(Nc1ccc(F)cc1-c1nc2ccccc2[nH]c1=O)c1cccs1", "activity change, negative = inhibition": "inactive"}
    ]}
  ]
}
